{"source": "patent US9573913B2", "about": "“Cathepsin cysteine protease inhibitors” (Merck Sharp & Dohme Corp., priority 2013, dated 2017)", "key": {"human cathepsin F": {"target": "T1, human cathepsin F (Homo sapiens, UniProt Q9UBX1)", "T1 sequence (Q9UBX1 271-484)": "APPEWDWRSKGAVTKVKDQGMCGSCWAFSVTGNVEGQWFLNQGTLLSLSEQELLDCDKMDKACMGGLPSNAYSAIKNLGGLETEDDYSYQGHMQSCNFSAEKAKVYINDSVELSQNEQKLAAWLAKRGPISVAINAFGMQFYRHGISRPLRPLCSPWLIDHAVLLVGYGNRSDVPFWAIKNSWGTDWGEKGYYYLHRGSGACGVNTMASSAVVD", "test": "Cathepsin F assay (hCat F)", "type": "biochemical", "conditions": "Z-Phe-Arg-AMC substrate, pH 5.5, 15 min preincubation; read-out: hCat F (IP (nM))", "experimental": "Cathepsin F assay (hCat F)\n(§1) Serial dilutions (1/3) from 500 μM down to 0.025 μM of test compounds were prepared in dimethyl sulfoxide (DMSO). Then 0.5 μL of DMSO from each dilution were added to 18.75 μL of assay buffer (MES, 50 mM (pH 5.5); EDTA, 2.5 mM; DTT, 2.5 mM and 10% DMSO) containing human cathepsin F (10 nM) in assay buffer solution. The assay solutions were mixed for 5-10 seconds on a shaker plate and incubated for 15 minutes at room temperature. Z-Phe-Arg-AMC (8 μM) in 6.25 μL of assay buffer was added to the assay solutions. Hydrolysis of the coumarin leaving group (AMC) was followed by spectrofluorometry (Exλ=360 nm; Emλ=460 nm) for 20 minutes. Percent of inhibition were calculated by fitting experimental values to standard mathematical model for dose response curve."}, "human cathepsin K": {"target": "human cathepsin K (UniProt P43236)", "test": "Cathepsin K Assay (hrbCat K)", "type": "biochemical", "conditions": "Z-Leu-Arg-AMC substrate, pH 5.5, 15 min preincubation; read-out: hrbCat K (IP (nM))", "experimental": "Cathepsin K Assay (hrbCat K)\nas §1, with “Then” for “Serial dilutions (1/3) from 500 μM down to 0.025 μM of test compounds were prepared in dimethyl sulfoxide (DMSO). Then”, “K (0.4” for “F (10”, “Z-Leu-Arg-AMC” for “Z-Phe-Arg-AMC”, “30” for “20”"}}, "data": [{"compound": "N#CC(CC(F)(F)F)NC(=O)[C@@H]1CCCC[C@H]1c1nc(-c2ccc(F)cn2)sc1-c1ccc(N2CCS(=O)(=O)CC2)cc1", "note": "(single isomer, unassigned) [Example 194, (1R,2R)-N-((S or R)-1-cyano-3,3,3-trifluoropropyl)-2-(5-(4-(1,1-dioxidothiomorpho-lino)phenyl)-2-(5-fluoropyridin-2-yl)thiazol-4-yl)cyclohexane-carboxamide]", "values": [{"measurement": "IC50", "setting": "human cathepsin F", "result": 1920, "unit": "nM"}, {"measurement": "IC50", "setting": "human cathepsin K", "result": 3.1, "unit": "nM"}]}, {"compound": "CC1CC1(C#N)NC(=O)[C@@H]1CCCC[C@H]1c1nc(-c2ccc(F)cn2)sc1-c1ccc(N2CCS(=O)(=O)CC2)cc1", "note": "(single isomer, unassigned) [Example 202, (1R,2R)-N-((1S,2S or 1S,2R or 1R,2S or 1R,2R)-1-cyano-2-methylcyclopropyl)-2-(5-(4-(1,1-dioxidothiomorpho-lino)phenyl)-2-(5-fluoropyridin-2-yl)thiazol-4-yl)cyclohexane-carboxamide]", "values": [{"measurement": "IC50", "setting": "human cathepsin F", "result": "≥ 10000", "unit": "nM"}, {"measurement": "IC50", "setting": "human cathepsin K", "result": 6.6, "unit": "nM"}]}, {"compound": "N#CC1(NC(=O)[C@@H]2C[C@@H](F)CC[C@H]2c2nc(C3CC(F)C3)sc2-c2ccc(N3CCS(=O)(=O)CC3)cc2)CC1", "note": "(single isomer, unassigned) [Example 233, (1R,2R,5S)-N-(1-cyanocyclopropyl)-2-(5-(4-(1,1-dioxidothiomorpho-lino)phenyl)-2-((1S,3S or 1R,3R)-3-fluorocyclobutyl)thiazol-4-yl)-5-fluorocyclohexane-carboxamide]", "values": [{"measurement": "IC50", "setting": "human cathepsin F", "result": "≥ 10000", "unit": "nM"}, {"measurement": "IC50", "setting": "human cathepsin K", "result": 6, "unit": "nM"}]}, {"compound": "C[C@@H](C#N)NC(=O)[C@@H]1C[C@@H](F)CC[C@H]1c1nc(C2CC(F)C2)sc1-c1ccc(N2CCS(=O)(=O)CC2)cc1", "note": "(single isomer, unassigned) [Example 234, (1R,2R,5S)-N-((S)-1-cyanoethyl)-2-(5-(4-(1,1-dioxidothiomorpho-lino)phenyl)-2-((1S,3S or 1R,3R)-(3-fluorocyclobutyl)thiazol-4-yl)-5-fluorocyclohexane-carboxamide]", "values": [{"measurement": "IC50", "setting": "human cathepsin F", "result": 6100, "unit": "nM"}, {"measurement": "IC50", "setting": "human cathepsin K", "result": 4, "unit": "nM"}]}, {"compound": "C[C@@H](C#N)NC(=O)[C@@H]1C[C@@H](F)CC[C@H]1c1nc(C2CC(F)C2)sc1-c1ccc(N2CCS(=O)(=O)CC2)cc1", "note": "(single isomer, unassigned) [Example 236, (1R,2R,5S)-N-((S)-1-cyanoethyl)-2-(5-(4-(1,1-dioxidothiomorpho-lino)phenyl)-2-((1R,3R or 1S,3S)-(3-fluorocyclobutyl)thiazol-4-yl)-5-fluorocyclohexane-carboxamide]", "values": [{"measurement": "IC50", "setting": "human cathepsin F", "result": 4500, "unit": "nM"}, {"measurement": "IC50", "setting": "human cathepsin K", "result": 3.7, "unit": "nM"}]}, {"compound": "N#CC1(NC(=O)[C@@H]2CCCC[C@H]2c2nc(C3CC(F)(F)C3)sc2-c2ccc(N3CCS(=O)(=O)CC3)cc2)CC1", "note": "[Compound 1, (1R,2R)-N-(1-cyanocyclopropyl)-2-(2-(3,3-difluorocyclobutyl)-5-(4-(1,1-dioxidothiomorpholino)phenyl)thiazol-4-yl)cyclohexanecarboxamide]", "values": [{"measurement": "IC50", "setting": "human cathepsin F", "result": 1000, "unit": "nM"}, {"measurement": "IC50", "setting": "human cathepsin K", "result": 5.8, "unit": "nM"}]}, {"compound": "N#CC1(NC(=O)[C@@H]2CCCC[C@H]2c2nc(-c3ccc(F)cc3)sc2-c2ccc(N3CCS(=N)(=O)CC3)cc2)CC1", "note": "[Compound 5, (1R,2R)-N-(1-Cyanocyclopropyl)-2-(2-(4-fluorophenyl)-5-(4-(1-imino-1-oxidothiomorpholino)phenyl)thiazol-4-yl)cyclohexanecarboxamide]", "values": [{"measurement": "IC50", "setting": "human cathepsin F", "result": 3330, "unit": "nM"}, {"measurement": "IC50", "setting": "human cathepsin K", "result": 1.9, "unit": "nM"}]}, {"compound": "N#CC1(NC(=O)[C@@H]2CCCC[C@H]2c2nc(N3CCC(F)(F)CC3)sc2-c2ccc(N3CCS(=O)(=O)CC3)cc2)CC1", "note": "[Compound 6, (1R,2R)-N-(1-cyanocyclopropyl)-2-(2-(4,4-difluoropiperidin-1-yl)-5-(4-(1,1-dioxidothiomorpholino)phenyl)thiazol-4-yl)cyclohexanecarboxamide]", "values": [{"measurement": "IC50", "setting": "human cathepsin F", "result": 1000, "unit": "nM"}, {"measurement": "IC50", "setting": "human cathepsin K", "result": 3.6, "unit": "nM"}]}, {"compound": "N#CC1(NC(=O)[C@@H]2C[C@@H](F)CC[C@H]2c2nc(-c3cncc(F)c3)sc2-c2ccc(N3CCS(=O)(=O)CC3)cc2)CC1", "note": "[Compound 7, (1R,2R,5S)-N-(1-cyanocyclopropyl)-2-(5-(4-(1,1-dioxidothiomorpholino)phenyl)-2-(5-fluoropyridin-3-yl)thiazol-4-yl)-5-fluorocyclohexanecarboxamide]", "values": [{"measurement": "IC50", "setting": "human cathepsin F", "result": 1920, "unit": "nM"}, {"measurement": "IC50", "setting": "human cathepsin K", "result": 0.9, "unit": "nM"}]}, {"compound": "C[C@@H](C#N)NC(=O)[C@@H]1C[C@@H](F)CC[C@H]1c1nc(-c2ccc(F)cn2)sc1-c1ccc(N2CCS(=O)(=O)CC2)cc1", "note": "[Compound 8, (1R,2R,5S)-N—((S)-1-Cyanoethyl)-2-(5-(4-(1,1-dioxidothiomorpholino)phenyl)-2-(5-fluoropyridin-2-yl)thiazol-4-yl)-5-fluorocyclohexanecarboxamide]", "values": [{"measurement": "IC50", "setting": "human cathepsin F", "result": 1100, "unit": "nM"}, {"measurement": "IC50", "setting": "human cathepsin K", "result": 1.3, "unit": "nM"}]}, {"compound": "Cc1nc([C@@H]2CC[C@H](F)C[C@H]2C(=O)NC2(C#N)CC2)c(-c2ccc(N3CCOCC3)cc2)s1", "note": "[Compound 9, (1R,2R,5S)-N-(1-cyanocyclopropyl)-5-fluoro-2-(2-methyl-5-(4-morpholinophenyl)thiazol-4-yl)cyclohexanecarboxamide]", "values": [{"measurement": "IC50", "setting": "human cathepsin F", "result": "≥ 10000", "unit": "nM"}, {"measurement": "IC50", "setting": "human cathepsin K", "result": 44.1, "unit": "nM"}]}, {"compound": "N#CC1(NC(=O)[C@@H]2CCCC[C@H]2c2nc(-c3ccc(F)cc3)oc2-c2ccc(N3CCS(=O)(=O)CC3)cc2)CC1", "note": "[Example 10, (1R,2R)-N-(1-cyanocyclopropyl)-2-(5-(4-(1,1-dioxidothiomorpholino)phenyl)-2-(4-fluorophenyl)oxazol-4-yl)cyclohexanecarboxamide]", "values": [{"measurement": "IC50", "setting": "human cathepsin F", "result": 1110, "unit": "nM"}, {"measurement": "IC50", "setting": "human cathepsin K", "result": 2.5, "unit": "nM"}]}, {"compound": "N#CC1(NC(=O)[C@@H]2CCCC[C@H]2c2nc(C3CCOCC3)sc2-c2ccc(N3CCS(=O)(=O)CC3)cc2)CC1", "note": "[Example 11, (1R,2R)-N-(1-Cyanocyclopropyl)-2-(5-(4-(1,1-dioxidothiomorpholino)phenyl)-2-(tetrahydro-2H-pyran-4-yl)thiazol-4-yl)cyclohexanecarboxamide]", "values": [{"measurement": "IC50", "setting": "human cathepsin F", "result": "≥ 10000", "unit": "nM"}, {"measurement": "IC50", "setting": "human cathepsin K", "result": 3, "unit": "nM"}]}, {"compound": "Cc1nc([C@@H]2CCCC[C@H]2C(=O)NCC#N)c(-c2ccc(C(=O)N3CCOCC3)cc2)s1", "note": "[Example 12, (1R,2R)-N-(cyanomethyl)-2-(2-methyl-5-(4-(morpholine-4-carbonyl)phenyl)thiazol-4-yl)cyclohexanecarboxamide]", "values": [{"measurement": "IC50", "setting": "human cathepsin F", "result": 5170, "unit": "nM"}, {"measurement": "IC50", "setting": "human cathepsin K", "result": 17, "unit": "nM"}]}, {"compound": "CC(C)(C)c1nc([C@@H]2CC[C@H](F)C[C@H]2C(=O)NC2(C#N)CC2)c(-c2ccc(N3CCS(=N)(=O)CC3)cc2)o1", "note": "[Example 13, (1R,2R,5S)-2-(2-(tert-Butyl)-5-(4-(1-imino-1-oxidothiomorpholino)phenyl)oxazol-4-yl)-N-(1-cyanocyclopropyl)-5-fluorocyclohexanecarboxamide]", "values": [{"measurement": "IC50", "setting": "human cathepsin F", "result": "≥ 10000", "unit": "nM"}, {"measurement": "IC50", "setting": "human cathepsin K", "result": 6, "unit": "nM"}]}, {"compound": "CN=S1(=O)CCN(c2ccc(-c3oc(C(C)(C)C)nc3[C@@H]3CC[C@H](F)C[C@H]3C(=O)NC3(C#N)CC3)cc2)CC1", "note": "[Example 14, (1R,2R,5S)-2-(2-(tert-Butyl)-5-(4-(1-(methylimino)-1-oxidothiomorpholino)phenyl)oxazol-4-yl)-N-(1-cyanocyclopropyl)-5-fluorocyclohexanecarboxamide]", "values": [{"measurement": "IC50", "setting": "human cathepsin F", "result": "≥ 10000", "unit": "nM"}, {"measurement": "IC50", "setting": "human cathepsin K", "result": 5.2, "unit": "nM"}]}, {"compound": "CC(C)OC(=O)N1CC(c2ccc(-c3sc(-c4ccc(F)cc4)nc3[C@@H]3CCCC[C@H]3C(=O)NC3(C#N)CC3)cc2)C1", "note": "[Example 15, Isopropyl 3-(4-(4-((1R,2R)-2-((1-cyanocyclopropyl)carbamoyl)cyclohexyl)-2-(4-fluorophenyl)thiazol-5-yl)phenyl)azetidine-1-carboxylate]", "values": [{"measurement": "IC50", "setting": "human cathepsin F", "result": 124, "unit": "nM"}, {"measurement": "IC50", "setting": "human cathepsin K", "result": 2.4, "unit": "nM"}]}, {"compound": "N#CC1(NC(=O)[C@@H]2CCCC[C@H]2c2nc(Oc3ccccc3)sc2-c2ccc(N3CCS(=O)(=O)CC3)cc2)CC1", "note": "[Example 16, (1R,2R)-N-(1-Cyanocyclopropyl)-2-(5-(4-(1,1-dioxidothiomorpholino)phenyl)-2-phenoxythiazol-4-yl)cyclohexanecarboxamide]", "values": [{"measurement": "IC50", "setting": "human cathepsin F", "result": 931, "unit": "nM"}, {"measurement": "IC50", "setting": "human cathepsin K", "result": 2.5, "unit": "nM"}]}, {"compound": "Cc1nc([C@@H]2CCCC[C@H]2C(=O)NCC#N)c(-c2ccc(N3CCS(=O)(=O)CC3)cc2)s1", "note": "[Example 17, (1R,2R)-N-(cyanomethyl)-2-(5-(4-(1,1-dioxidothiomorpho-lino)phenyl)-2-methylthiazol-4-yl)cyclohexane-carboxamide]", "values": [{"measurement": "IC50", "setting": "human cathepsin F", "result": 1140, "unit": "nM"}, {"measurement": "IC50", "setting": "human cathepsin K", "result": 2, "unit": "nM"}]}, {"compound": "N#CCNC(=O)[C@@H]1CCCC[C@H]1c1nc(C2CC2)sc1-c1ccc(N2CCS(=O)(=O)CC2)cc1", "note": "[Example 18, (1R,2R)-N-(cyanomethyl)-2-(2-cyclopropyl-5-(4-(1,1-dioxidothiomorpho-lino)phenyl)thiazol-4-yl)cyclohexane-carboxamide]", "values": [{"measurement": "IC50", "setting": "human cathepsin F", "result": 564, "unit": "nM"}, {"measurement": "IC50", "setting": "human cathepsin K", "result": 1.2, "unit": "nM"}]}, {"compound": "CC(C)(C)c1nc([C@@H]2CCCC[C@H]2C(=O)NCC#N)c(-c2ccc(N3CCS(=O)(=O)CC3)cc2)s1", "note": "[Example 19, (1R,2R)-2-(2-(tert-butyl)-5-(4-(1,1-dioxidothiomorpho-lino)phenyl)thiazol-4-yl)-N-(cyanomethyl)cyclo-hexanecarboxamide]", "values": [{"measurement": "IC50", "setting": "human cathepsin F", "result": 851, "unit": "nM"}, {"measurement": "IC50", "setting": "human cathepsin K", "result": 0.7, "unit": "nM"}]}]}
